Consider 65 molecules from PubChem BioAssay AID1626 (SRMLSC, 2009).

The test deals with M. tuberculosis H37Rv growth inhibition. As to the kind of experiment: M. tuberculosis H37Rv growth inhibitors, H37Rv strain (AID 1626). As to conditions: for IC90: measured here: IC90 against H37Rv; for CC50: measured here: Vero cell cytotoxicity.

A value given as a limit tells only on which side of the number the result lay.

Turning to `O=c1cc(N=Nc2ccc(Cl)cc2)[nH]c(=O)[nH]1`, the IC50 was 13 µM, the IC90 is 14.5 µM and the CC50 was 7.51 µM.

With `Cc1cccn2c(=O)c3cc(C(=O)NCc4ccco4)c(=N)n(CCc4ccccc4)c3nc12`, the IC50 was 9.99 µM, the IC90 came out at 21.2 µM and the CC50 was determined as 18.8 µM.

Turning to `O=C(OCc1nc2ccccc2s1)c1ccco1`, the half-inhibitory concentration (IC50) was 32.7 µM and the IC90 is greater than 100 µM.

On to `COc1ccc(-c2nnc(SCC(=O)Nc3cc(C)on3)o2)cc1`, for which the IC50 is 3.86 µM, the IC90 came to 6.19 µM and the CC50 was greater than 40 µM.

Regarding `N#Cc1ccc(/C=C/C(=O)c2cccnc2)cc1`, the IC50 is 4.84 µM, the IC90 was determined as 6.15 µM and the CC50 was determined as 19.3 µM.

Regarding `Nc1ncnc2c1ccn2[C@@H]1O[C@H](CO)[C@@H](O)[C@H]1O`, the IC50 is 2.44 µM, the IC90 is 3.87 µM and the CC50 came to 0.131 µM.

Take `CCOC(=O)c1ccc(NS(=O)C23CC4CC(CC(C4)C2)C3)cc1` (configuration not stated): the IC50 is 7.62 µM and the IC90 was greater than 100 µM.

As for `Cc1nc2ccc(NC(=O)N(C(C)C)C(C)C)cc2s1`, the IC50 was 20.2 µM and the IC90 was greater than 100 µM.

In the case of `Cn1ccnc1C(O)c1cc(C(C)(C)C)c(O)c(C(C)(C)C)c1` (configuration not stated), the IC50 was 10.3 µM and the IC90 turned out to be 13.8 µM.

`NC(=O)c1ccc(NC(=O)COC(=O)c2c3c(nc4ccccc24)/C(=C\c2cccs2)CCC3)cc1`: the IC50 was 0.572 µM, the concentration for an effect of 90% (IC90) was 9.77 µM and the CC50 is 7.95 µM.

With `CC(C)N1CCC2(CC1)N=C(c1ccc3c(c1)OCO3)CC(c1cc(Cl)ccc1O)N2` (configuration not stated), the IC50 is 8.26 µM, the IC90 amounted to 12.4 µM and the CC50 is 12.5 µM.

With `O=C(CSc1ncnc2c1oc1ccccc12)OCc1ccccc1`, the IC50 is 7.79 µM and the IC90 was 26.8 µM.

Turning to `Cc1cc(=O)[nH]c(-n2nc(C)cc2C)n1`, the IC50 was 1.42 µM, the IC90 amounted to 2.43 µM and the CC50 is greater than 40 µM.

Take `O=C1N=C2N(CCN3CCCCC3)c3ccccc3N2/C1=C\c1ccc([N+](=O)[O-])o1`: the IC50 was 1.56 µM, the IC90 was 1.6 µM and the CC50 stood at 4.9 µM.

`N#CC1=C(c2ccccc2)/C(=C/c2ccccc2)OC1=O`: the IC50 is 17.6 µM, the IC90 is greater than 100 µM and the 50% cytotoxic concentration (CC50) came to 15.4 µM.

In turn, `COc1ccc(NC(C)c2cc(Cl)ccc2O)cc1` (configuration not stated) gave an IC90 greater than 100 µM.

With `Clc1ccc(SCc2cc(N3CCOCC3)nc(-c3ccccn3)n2)cc1`, the IC50 was 8.83 µM, the IC90 was determined as 41.6 µM and the CC50 was 12.2 µM.

As for `CN(C)c1ccc(C(=O)Nc2nnc(-c3ccc(Cl)cc3)o2)cc1`, the IC50 is 0.895 µM, the IC90 is greater than 100 µM and the CC50 is greater than 40 µM.

Turning to `CCOC(=O)Cn1c2c(c(-c3ccccc3OC)cc1=O)CCCC2`, the IC50 was 21.1 µM and the IC90 was greater than 100 µM.

On to `Oc1ccccc1-c1nc(/C=C/c2ccccc2)nn1-c1ccccc1`, for which the IC50 is 16.3 µM and the IC90 was greater than 100 µM.

As to `CCCc1nc2sc3ccccc3c(=O)c2c(=O)n1Cc1ccc(OC)cc1`, the IC90 was greater than 100 µM and the CC50 was greater than 40 µM.

With `Nc1cnc(-c2ccccc2)nc1Cl`, the IC50 is 7.27 µM and the IC90 is greater than 100 µM.

Regarding `Cc1cccc(C)c1N1CCN(c2ccc3nnc(C(F)(F)F)n3n2)CC1`, the IC50 is 11.8 µM, the IC90 was 61.8 µM and the CC50 is greater than 40 µM.

With `Cc1nc(SCc2cccc(F)c2)c2oc3ccccc3c2n1`, the IC50 is 0.588 µM and the IC90 came to 18 µM.

With `O=C(Nc1ccc(N2CCCCC2)c(Cl)c1)c1ccc(N2CCOCC2)c([N+](=O)[O-])c1`, the IC50 was 40.2 µM, the IC90 was greater than 100 µM and the CC50 turned out to be 30 µM.

With `COc1ccc2nc(/N=C(\N)NC(=O)N3c4ccccc4Sc4ccccc43)nc(C)c2c1`, the IC50 is 28.5 µM, the IC90 was greater than 100 µM and the CC50 is greater than 40 µM.

Regarding `COc1ccc(-c2nc(Cn3c(SCc4ccc(C)cc4)nc4ccncc43)c(C)o2)cc1OC`, the IC50 was 6.52 µM, the IC90 is greater than 100 µM and the CC50 is greater than 40 µM.

`N#Cc1ccc(/C=C/C(=O)c2ccc3c(c2)OCO3)cc1`: the IC90 is greater than 100 µM.

In the case of `Cc1nc2ccc(N)cc2s1`, the half-maximal inhibitory concentration (IC50) was 0.6 µM and the IC90 is greater than 100 µM.

For `COc1ccc(Br)cc1C(=O)Nc1ccccc1N1CCN(C(=O)c2ccccc2)CC1`, the IC50 was 16.7 µM, the IC90 is greater than 100 µM and the CC50 was greater than 40 µM.

Consider `CCc1ccc(Nc2nnc(SCC(=O)Nc3cccnc3Cl)s2)cc1`, for which the IC50 was 5.02 µM and the IC90 was determined as 13.6 µM.

`O=C(/C=C/c1ccc2c(c1)OCO2)c1c(O)n(CCc2ccccc2)c(=O)[nH]c1=O`: the IC50 was 6.87 µM, the IC90 stood at 9.99 µM and the CC50 came out at 27.4 µM.

Take `CC(C)c1c(O)nc(SCC(=O)Nc2ccc3c(c2)CCC3)[nH]c1=O`: the IC50 is 32.8 µM and the IC90 was greater than 100 µM.

For the molecule `CSc1nc2nc(C)c(C/C=C/c3ccccc3)c(=O)n2[nH]1`, the IC50 was 11.4 µM and the IC90 was greater than 100 µM.

Consider `COc1ccc(C(CCNCc2ccc(F)cc2)c2ccc(F)cc2)cc1` (configuration not stated), for which the IC50 is 5.7 µM, the IC90 is 6.62 µM and the CC50 amounted to 23.2 µM.

The molecule `CCN(CC)CCn1c(NC(=O)c2ccc(C(F)(F)F)cc2)nc2ccccc21` showed a CC50 greater than 40 µM.

Regarding `CCCN(CC1CC1)C(=O)COC(=O)c1ccc2c(c1)C(=O)N(c1ccc(OCC)cc1)C2=O`, the concentration for an effect of 90% (IC90) was greater than 100 µM.

As for `CNC(=O)c1c(NC(=O)c2nc3ccccc3s2)sc2c1CCC2`, the CC50 is greater than 40 µM.

`COc1cc2c(cc1OC)C1(Nc3c-2c(-c2ccccc2)nn3-c2ccccc2)C(=O)Nc2ccccc21` (configuration not stated): the IC50 is 7.21 µM, the IC90 amounted to 13.2 µM and the CC50 was found to be 23.7 µM.

With `O=C(C[n+]1cc(-c2ccc(Cl)c(Cl)c2)n2c1CCC2)N1c2ccccc2Sc2ccccc21`, the IC50 is 12.2 µM and the IC90 is 13.9 µM.

Take `O=C(Oc1ccc(Cl)cc1)c1ccc(COC(=O)c2cnccn2)cc1`: the IC50 was 6.54 µM, the IC90 was found to be 9.41 µM and the CC50 was greater than 40 µM.

In the case of `COc1cc(NC(=O)c2ccc(Cl)cc2)c(OC)cc1NC(=O)CN1CCCCC1`, the IC50 was 8.74 µM and the IC90 was determined as 16.9 µM.

For `Cc1ccc(NC(=O)CNCc2ccccc2)cc1Br`, the IC50 is 32.3 µM and the IC90 is greater than 100 µM.

With `O=C(O)c1cn(-c2ccc(N3CCCC3)c(F)c2)c2c(F)c(F)c(F)cc2c1=O`, the IC50 is 4.59 µM, the IC90 was 9.57 µM and the CC50 was greater than 40 µM.

For `CCCCc1ccc(NC(=O)c2cnccn2)cc1`, the 50% inhibitory concentration (IC50) is 52.1 µM, the IC90 was greater than 100 µM and the CC50 was greater than 40 µM.

`N#C/C(=C/c1ccc(N2CCCCC2)o1)C(=O)NCCc1c[nH]c2ccccc12`: the IC50 was 41 µM, the IC90 was greater than 100 µM and the CC50 was greater than 40 µM.

As for `CC(C)(C)c1ccccc1OCCOCCN1CCCCCC1`, the IC50 was 57.8 µM and the IC90 was greater than 100 µM.

With `O=C(CSc1nnc(CNc2cccc(Cl)c2)o1)OC1CCCCC1`, the IC50 is 0.661 µM and the IC90 was found to be 1.4 µM.

As for `O=C(CSc1ccccn1)Nc1ccc2c(c1)oc1ccccc12`, the IC50 was less than 0.195 µM and the IC90 was greater than 100 µM.

Take `COc1cc(NS(=O)(=O)c2ccc(N)cc2)ncn1`: the IC50 was 6.02 µM and the IC90 is 12.2 µM.

Regarding `O=C1c2cccc3c([N+](=O)[O-])ccc(c23)C(=O)N1c1ccccn1`, the IC50 was 7.34 µM, the IC90 was 10.5 µM and the CC50 was 12.2 µM.

As for `COC(=O)CSc1ccc(-c2nc3ccc(C)cc3[nH]2)cn1`, the IC50 is 1.95 µM and the IC90 came out at 3.39 µM.

As for `O=C(COC(=O)c1ccc(-c2ccc([N+](=O)[O-])cc2)o1)NC(=O)NC12CC3CC(CC(C3)C1)C2`, the IC50 was 10.3 µM and the IC90 was greater than 100 µM.

For the molecule `O=C(Nc1nc(-c2ccccn2)cs1)c1ncc(Cl)c(Cl)c1Cl`, the IC50 was 1.45 µM, the IC90 came to 5.3 µM and the CC50 was 31.7 µM.

On to `COc1cc(CN2CCCC(C(=O)c3ccccc3SC)C2)cc(OC)c1` (configuration not stated), for which the IC50 is 22.7 µM, the IC90 is 25.9 µM and the CC50 was greater than 40 µM.

As for `CCCCc1c(C)c(C#N)c2nc3ccccc3n2c1Cl`, the IC50 was 10.1 µM, the IC90 was greater than 100 µM and the CC50 amounted to 5.35 µM.

Consider `O=C(OCC#CCSc1nnc(-c2ccc([N+](=O)[O-])cc2)o1)c1cccs1`, for which the IC50 is less than 0.195 µM and the IC90 is 1.3 µM.

Turning to `CCOC(=O)c1cc(-c2csc(-c3ccc(C(F)(F)F)cc3)n2)on1`, the IC50 was less than 0.195 µM and the IC90 was 3.33 µM.

Turning to `Cc1ccc(Cn2c(NC(=O)c3ccco3)nc3ccccc32)cc1`, the IC50 was 4.08 µM, the IC90 is greater than 100 µM and the CC50 was greater than 40 µM.

For the molecule `Cc1cccc(N2CCN(C(=O)/C=C/c3cccs3)CC2C)c1` (configuration not stated), the IC50 was 23.4 µM and the IC90 was found to be 26.5 µM.

As for `O=C1C2C(c3ccccc3)(C(=O)N1c1ccc(Cl)cc1)C2(c1ccccc1)c1ccccc1` (configuration not stated), the IC50 was 22.4 µM, the IC90 is greater than 100 µM and the CC50 was greater than 40 µM.

Consider `CC1CC1C(=O)Nc1nc(-c2ccccn2)cs1` (configuration not stated), for which the IC50 is 2.13 µM, the IC90 is 4.75 µM and the CC50 was found to be 25.9 µM.

As to `COc1ccc(Cn2c(SCc3ccccc3C)nc3cc(OC)c(OC)cc3c2=N)cc1`, the IC50 was 2.24 µM, the IC90 came to 3.02 µM and the CC50 was determined as 6.78 µM.

Regarding `CCCCn1c(=O)c(C(=O)Nc2nnc(C(C)C)s2)c(O)c2ccccc21`, the IC50 was 0.767 µM, the IC90 was determined as 0.841 µM and the CC50 was greater than 40 µM.

Take `O=C(O)C1CCCCC1C(=O)Nc1ccccc1Nc1ccccc1` (configuration not stated): the IC90 is greater than 100 µM.

Usually IC50 stands for the concentration at which inhibition is half-maximal. The term IC90 denotes the point of the concentration-response curve where the effect stands at 90%. Low values mean an effect from little substance, high ones a need for much substance. In general, CC50 refers to the concentration giving 50% cytotoxicity. Read a low CC50 as harm at low concentration.
